Experimental findings from US20220153751A1, “BIFUNCTIONAL COMPOUNDS” (BioTheryX, Inc., priority 2018, published 2022) are described below.

Assay type in all cases: cell-based
The target of test [1] is T1, CK1α (Homo sapiens, UniProt P48729+Q96SW2).
T1 construct: Whole cell extracts were prepared using RIPA buffer; endogenous in cells; host or cells: MV-4-11
Nature of the test: CK1α degradation assay (Western blot, MV-4-11 cells). To be noted: MV4-11, 6-8 h. The protocol:
MV-4-11 cells were grown in RPMI 1640 media supplemented with 10% fetal bovine serum, streptomycin and penicillin.
Cells were cultured at approximately 10^6 cells per mL and incubated in DMSO or the indicated compound for 6-8 h. Whole cell extracts were prepared using RIPA buffer according to manufacturer's protocol (Pierce). Briefly, 3×10^6 cells were washed once in PBS, the cell pellets were resuspended in RIPA buffer and allowed to incubate for 15 minutes on ice. Cells debris was removed by centrifugation and the cleared whole cell lysates were transferred to new tubes for further analysis.
For Western blot analysis, whole cell protein extracts were separated on 4-12% SDS-polyacrylamide gels, transferred to nitrocellulose and probed with the indicated primary antibodies. Membranes were subsequently washed and probed with the appropriate IRDye secondary antibodies (LI-COR). The signal was detected using the Odyssey Imaging System (LI-COR).
The following antibodies were used in these studies: Anti-eRF3/GSPT1: Abcam, ab126090 (Cambridge, Mass.); Anti-Ikaros: Abcam, ab191394 (Cambridge, Mass.); Anti-CK1α: Abcam, ab108296 (Cambridge, Mass.); Anti-CDK9: Santa Cruz Biotechnology, sc13130 (Dallas, Tex.); Anti-CDK16: Millipore Sigma, HPA001366 (St. Louis, Mo.); 3-actin (8H10comD10) mouse monoclonal antibody: Cell Signaling Technology, #3700 (Danvers, Mass.); IRDye 680RD Goat anti-rabbit antibody: LI-COR, 926-68071 (Lincoln, Nebr.); IRDye 800CW Goat anti-mouse antibody: LI-COR, 926-32210 (Lincoln, Nebr.).
CDK9 activities are shown in Table 4 at two different concentrations. CDK16 activities are shown in Table 5 at two different concentrations. In each of Tables 1-5, the % degradation values are reported as “A”, “B”, “C”, or “D”. “A” represents a % degradation value of less than 25% (value <25%). “B” represents a % degradation value of equal to or more than 25% and less than 50% (25%≤value<50%). “C” represents a % degradation value of equal to or more than 50% and less than 75% (50%≤value<75%). “D” represents a % degradation value of equal to or more than 75% (value ≥75%).

The target of test [2] is T2, GSPT1 (Homo sapiens, UniProt P15170+Q96SW2).
T2 construct: Whole cell extracts were prepared using RIPA buffer; endogenous in cells; host or cells: MV-4-11
Nature of the test: GSPT1 degradation assay (Western blot, MV-4-11 cells). To be noted: MV4-11, 6-8 h. The method in brief: (§1)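 Reported degradation is grouped into four bands (A below 25%, B 25% to under 50%, C 50% to under 75%, D 75% or more). Treatment lasts 6-8 h against a DMSO control, followed by RIPA extraction and immunoblotting with near-infrared detection.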

Test [3] has as its system IL-1β. Nature of the test: IL-1β inhibition assay, LPS-induced PBMCs / CD14+ monocytes (Meso Scale). The conditions noted are these: 1 h pretreatment, 100 ng/mL LPS 18-24 h. The procedure, abridged:
(§2)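 Thawed human PBMCs or CD14+ mobilized peripheral blood monocytes, 200,000 cells/well in RPMI-1640/10% FBS, pretreated with compound or DMSO 1 h, then stimulated with 100 ng/mL LPS for 18-24 h. Supernatant cytokine measured by Meso Scale; % inhibition binned A–D (<50%, 50–70%, 70–90%, ≥90%), fold-change binned A–D (≤0.1, ≤0.5, ≤1, >1).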

Test [4] deals with IL-6. In words: IL-6 inhibition assay, LPS-induced PBMCs / CD14+ monocytes (Meso Scale). The conditions noted are these: 1 h pretreatment, 100 ng/mL LPS 18-24 h. The method in brief:
as §2

The test system of test [5] is TNF-α. Nature of the test: TNF-α inhibition assay, LPS-induced PBMCs / CD14+ monocytes (Meso Scale). The conditions noted are these: 1 h pretreatment, 100 ng/mL LPS 18-24 h. The procedure, abridged:
as §2

For test [6], the system named is IL-2. In words: IL-2 fold-change assay, anti-CD3 stimulated PBMCs (Mesoscale). To be noted: PBMC, PBMCs on anti-human CD3, 24 h, fold difference from the DMSO control. The procedure: For the IL-2 analysis, 96 well plates were precoated with 1 μg/mL anti-human CD3 antibody (OK3, eBioscience Inc., San Diego, Calif.). After washing with PBS, the indicated compound was added (50 μL/well) followed by PBMCs diluted at 3-4 million cells/mL (150 μL/well). Plates were incubated for 24 h and the supernatants collected for Mesoscale IL-2 analysis. IL-2 activity is measured as fold difference from the DMSO control.
In Table 6, the % inhibition values are reported as “A”, “B”, “C”, or “D”. “A” represents a % inhibition value of less than 50% (value <50%). “B” represents a % inhibition value of equal to or more than 50% and less than 70% (50%≤value<70%). “C” represents a % inhibition value of equal to or more than 70% and less than 90% (70%≤value<90%). “D” represents a % inhibition value of equal or more than 90% (value ≥90%). In Table 7, the fold-change values are reported as “A”, “B”, “C”, or “D”. “A” represents a fold-change value of equal to or less than 0.1 (value ≤0.1). “B” represents a fold-change value of more than 0.1 and equal to or less than 0.5 (0.1<value≤0.5). “C” represents a fold-change value of more than 0.5 and equal to or less than 1 (0.5<value≤1). “D” represents a fold-change value of more than 1 (value >1).

The test system of test [7] is MOLM-13 cells. In words: MOLM-13 cell viability assay (CellTiter-Glo). To be noted: Homo sapiens, MOLM-13, 72 h, 3 days, read-out: MOLM-13 Cell Viability % DMSO at 1 μM. The method in brief:
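MOLM-13 cells at 2500 cells/well were exposed to compound for 3 days at 37 °C. Viability was read by CellTiter-Glo luminescence and expressed as % of DMSO control, binned A (<50%), B (50–<70%), C (70–<90%) or D (≥90%).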

For test [8], the target named is T3, IKAROS (Homo sapiens, UniProt Q13422+Q96SW2).
T3 construct: endogenous in cells; host or cells: MV-4-11
Nature of the test: IKAROS degradation assay (Western blot, MV-4-11 cells). To be noted: MV4-11, 6-8 h. The method in brief:
as §1

T1 sequence (P48729 whole entry): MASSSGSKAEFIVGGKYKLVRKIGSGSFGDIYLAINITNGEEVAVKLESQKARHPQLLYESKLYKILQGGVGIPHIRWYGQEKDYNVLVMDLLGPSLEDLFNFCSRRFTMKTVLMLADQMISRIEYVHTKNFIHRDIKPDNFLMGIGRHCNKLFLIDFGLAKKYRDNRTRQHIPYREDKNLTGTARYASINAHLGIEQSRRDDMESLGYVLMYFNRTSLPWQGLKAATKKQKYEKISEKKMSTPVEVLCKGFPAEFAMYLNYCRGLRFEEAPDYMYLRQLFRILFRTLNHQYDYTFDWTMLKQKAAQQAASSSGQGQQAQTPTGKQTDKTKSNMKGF
T1 sequence (Q96SW2 whole entry): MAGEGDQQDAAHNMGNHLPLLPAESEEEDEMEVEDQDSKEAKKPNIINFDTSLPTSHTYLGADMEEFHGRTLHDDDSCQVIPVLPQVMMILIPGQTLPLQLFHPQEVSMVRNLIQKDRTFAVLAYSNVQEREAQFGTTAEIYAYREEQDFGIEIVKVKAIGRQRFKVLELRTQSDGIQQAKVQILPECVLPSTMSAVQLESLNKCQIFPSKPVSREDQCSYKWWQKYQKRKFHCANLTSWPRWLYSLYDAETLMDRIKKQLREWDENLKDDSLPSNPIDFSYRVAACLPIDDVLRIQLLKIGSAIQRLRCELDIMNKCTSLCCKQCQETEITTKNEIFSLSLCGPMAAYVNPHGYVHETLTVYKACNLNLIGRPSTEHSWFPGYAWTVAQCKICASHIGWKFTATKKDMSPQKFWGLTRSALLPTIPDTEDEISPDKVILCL
T1 sequence (Q16531 whole entry partner): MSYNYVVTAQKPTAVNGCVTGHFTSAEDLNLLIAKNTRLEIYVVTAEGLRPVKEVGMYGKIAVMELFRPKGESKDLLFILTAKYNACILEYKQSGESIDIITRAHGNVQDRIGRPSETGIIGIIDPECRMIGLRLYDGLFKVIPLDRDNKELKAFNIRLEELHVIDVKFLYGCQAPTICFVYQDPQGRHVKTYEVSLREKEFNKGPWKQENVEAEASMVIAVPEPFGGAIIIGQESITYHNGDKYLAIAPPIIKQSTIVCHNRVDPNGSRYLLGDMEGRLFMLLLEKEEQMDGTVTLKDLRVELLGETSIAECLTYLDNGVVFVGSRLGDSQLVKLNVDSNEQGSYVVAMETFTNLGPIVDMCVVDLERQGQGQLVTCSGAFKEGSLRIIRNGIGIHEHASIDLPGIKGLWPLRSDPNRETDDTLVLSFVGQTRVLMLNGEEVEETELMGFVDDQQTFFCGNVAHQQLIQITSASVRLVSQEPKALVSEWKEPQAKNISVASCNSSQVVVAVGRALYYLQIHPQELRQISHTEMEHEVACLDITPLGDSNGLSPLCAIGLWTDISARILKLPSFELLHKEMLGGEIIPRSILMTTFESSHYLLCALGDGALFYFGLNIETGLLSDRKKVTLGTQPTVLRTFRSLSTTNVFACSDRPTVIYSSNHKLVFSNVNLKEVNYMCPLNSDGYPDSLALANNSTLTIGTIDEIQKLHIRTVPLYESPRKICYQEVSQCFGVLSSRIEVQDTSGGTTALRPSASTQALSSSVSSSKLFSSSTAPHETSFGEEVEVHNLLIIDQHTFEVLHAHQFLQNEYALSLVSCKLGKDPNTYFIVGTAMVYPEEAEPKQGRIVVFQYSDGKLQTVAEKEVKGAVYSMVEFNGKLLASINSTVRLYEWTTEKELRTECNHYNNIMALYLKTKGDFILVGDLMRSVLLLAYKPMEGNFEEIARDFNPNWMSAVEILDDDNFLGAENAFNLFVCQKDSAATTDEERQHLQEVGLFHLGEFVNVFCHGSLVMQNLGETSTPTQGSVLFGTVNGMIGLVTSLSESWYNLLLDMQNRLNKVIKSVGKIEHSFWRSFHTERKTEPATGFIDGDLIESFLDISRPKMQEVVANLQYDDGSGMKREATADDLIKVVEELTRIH
T2 sequence (P15170 whole entry): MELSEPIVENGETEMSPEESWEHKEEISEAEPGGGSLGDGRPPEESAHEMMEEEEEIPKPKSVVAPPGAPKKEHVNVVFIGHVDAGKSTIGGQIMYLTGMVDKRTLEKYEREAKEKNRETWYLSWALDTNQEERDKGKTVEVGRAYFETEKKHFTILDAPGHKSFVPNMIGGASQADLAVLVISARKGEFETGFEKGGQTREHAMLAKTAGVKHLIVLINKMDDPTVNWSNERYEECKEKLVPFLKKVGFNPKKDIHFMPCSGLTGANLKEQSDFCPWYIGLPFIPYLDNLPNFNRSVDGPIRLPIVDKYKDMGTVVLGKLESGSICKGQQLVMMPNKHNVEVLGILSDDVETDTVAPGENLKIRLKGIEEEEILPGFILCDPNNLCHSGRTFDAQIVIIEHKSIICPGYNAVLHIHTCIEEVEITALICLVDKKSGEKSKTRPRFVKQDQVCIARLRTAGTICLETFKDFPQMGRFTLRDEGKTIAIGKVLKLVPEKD
T2 sequence (Q96SW2 whole entry): as the sequence (Q96SW2 whole entry) above
T2 sequence (Q16531 whole entry partner): as the sequence (Q16531 whole entry partner) above
T3 sequence (Q13422 whole entry): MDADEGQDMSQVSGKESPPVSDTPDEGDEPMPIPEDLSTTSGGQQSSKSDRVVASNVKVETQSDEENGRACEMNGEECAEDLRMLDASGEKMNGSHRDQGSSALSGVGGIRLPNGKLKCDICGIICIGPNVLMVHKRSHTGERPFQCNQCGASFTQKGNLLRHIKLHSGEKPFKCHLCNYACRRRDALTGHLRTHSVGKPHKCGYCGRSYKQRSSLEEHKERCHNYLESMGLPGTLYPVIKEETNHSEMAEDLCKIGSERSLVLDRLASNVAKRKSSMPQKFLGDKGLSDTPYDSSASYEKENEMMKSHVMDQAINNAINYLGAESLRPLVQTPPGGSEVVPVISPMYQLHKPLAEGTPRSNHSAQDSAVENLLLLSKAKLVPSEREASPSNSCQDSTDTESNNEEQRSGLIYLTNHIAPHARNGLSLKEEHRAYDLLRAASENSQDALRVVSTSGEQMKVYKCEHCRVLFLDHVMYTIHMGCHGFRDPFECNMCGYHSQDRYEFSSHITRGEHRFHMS
T3 sequence (Q96SW2 whole entry): as the sequence (Q96SW2 whole entry) above
T3 sequence (Q16531 whole entry partner): as the sequence (Q16531 whole entry partner) above

Regarding `Cn1ncc(-c2nc(N[C@H]3CC[C@H](NC(=O)CCCCCCNCC(=O)Nc4cccc5c4CN([C@H]4CCCC(=O)NC4=O)C5=O)CC3)ncc2Cl)c1CC1CC1` [Compound 9, N-((1r,4r)-4-((5-chloro-4-(5-(cyclopropylmethyl)-1-methyl-1H-pyrazol-4-yl)pyrimidin-2-yl)amino)cyclohexyl)-7-((2-((2-((S)-2,7-dioxoazepan-3-yl)-1-oxoisoindolin-4-yl)amino)-2-oxoethyl)amino)heptanamide], the Dmax at 1 µM is less than 25% in test [1] and 50 to 75% in test [2]. For the same compound, the inhibition at 1 µM was 50 to 70% in test [3], less than 50% in test [4] and 50 to 70% in test [5]. The fold induction at 1 µM in test [6] fell in the range of 0.5 to 1. The viability at 1 µM in test [7] was less than 50%.

Turning to `Cn1ncc(-c2cc(N[C@H]3CC[C@H](NCC(=O)NCCNCC(=O)NCc4cc5c(s4)C(=O)N(C4CCC(=O)NC4=O)C5)CC3)ncc2F)c1CC1CC1` (stereo partly drawn) [Compound 63, 2-(((1r,4r)-4-((4-(5-(cyclopropylmethyl)-1-methyl-1H-pyrazol-4-yl)-5-fluoropyridin-2-yl)amino)cyclohexyl)amino)-N-(2-((2-(((5-(2,6-dioxopiperidin-3-yl)-6-oxo-5,6-dihydro-4H-thieno[2,3-c]pyrrol-2-yl)methyl)amino)-2-oxoethyl)amino)ethyl)acetamide], the Dmax at 1 µM in test [8] is 25 to 50%; in test [2], less than 25%. Further, in test [6], the fold induction at 1 µM is greater than 1. Also, in test [7], the viability at 1 µM was greater than 90%.

For `Cn1ncc(-c2ncnc(N[C@H]3CC[C@H](NCCCCCCCCNC(=O)NCc4cc5c(s4)C(=O)N(C4CCC(=O)NC4=O)C5)CC3)n2)c1CC1CC1` (stereo partly drawn) [Compound 65, 1-(8-(((1r,4r)-4-((4-(5-(cyclopropylmethyl)-1-methyl-1H-pyrazol-4-yl)-1,3,5-triazin-2-yl)amino)cyclohexyl)amino)octyl)-3-((5-(2,6-dioxopiperidin-3-yl)-6-oxo-5,6-dihydro-4H-thieno[2,3-c]pyrrol-2-yl)methyl)urea], the Dmax at 1 µM in test [1] lay within 50 to 75%; in test [2], 25 to 50%. The inhibition at 1 µM in test [3], in test [4] and in test [5] was less than 50% each time. Moreover, the fold induction at 1 µM in test [6] fell in the range of 0.5 to 1. Besides, in test [7], the viability at 1 µM was less than 50%.

As for `CC(C)(C)c1cnc(CSc2cnc(NC(=O)C3CCN(CCOCCOCCOCCOCCNCC(=O)NCc4scc5c4CN(C4CCC(=O)NC4=O)C5=O)CC3)s2)o1` (stereo not drawn) [Compound 58, N-(5-(((5-(tert-butyl)oxazol-2-yl)methyl)thio)thiazol-2-yl)-1-(1-(5-(2,6-dioxopiperidin-3-yl)-4-oxo-5,6-dihydro-4H-thieno[3,4-c]pyrrol-1-yl)-3-oxo-8,11,14,17-tetraoxa-2,5-diazanonadecan-19-yl)piperidine-4-carboxamide], the Dmax at 1 µM in test [8] was less than 25%; in test [1] it was no less than 75%. Further, the inhibition at 1 µM was greater than 90% in test [3], 70 to 90% in test [4] and less than 50% in test [5]. The fold induction at 1 µM in test [6] was 0.5 to 1. In addition, the viability at 1 µM in test [7] lay in the range of 50 to 70%.

In the case of `Cn1ncc(-c2nc(N[C@H]3CC[C@H](NCC(=O)NCCOCCOCC(=O)NCc4ccc(COc5cccc6c5CN(C5CCC(=O)NC5=O)C6=O)cc4)CC3)ncc2Cl)c1CC1CC1` (stereo partly drawn) [Compound 28, 2-(((1r,4r)-4-((5-chloro-4-(5-(cyclopropylmethyl)-1-methyl-1H-pyrazol-4-yl)pyrimidin-2-yl)amino)cyclohexyl)amino)-N-(2-(2-(2-((4-(((2-(2,6-dioxopiperidin-3-yl)-1-oxoisoindolin-4-yl)oxy)methyl)benzyl)amino)-2-oxoethoxy)ethoxy)ethyl)acetamide], the values for the Dmax at 1 µM in test [8] and in test [2] were 50 to 75% and less than 25%, respectively. In addition, the inhibition at 1 µM in test [3], in test [4] and in test [5] was greater than 90% throughout. Also, in test [6], the fold induction at 1 µM is no more than 0.1. In addition, the viability at 1 µM in test [7] is greater than 90%.

Turning to `Cn1ncc(-c2nc(N[C@H]3CC[C@H](NCC(=O)NCCOCCOCCOCCNc4cccc5c4CN(C4CCC(=O)NC4=O)C5=O)CC3)ncc2F)c1CC1CC1` (stereo partly drawn) [Compound 56, 2-(((1r,4r)-4-((4-(5-(cyclopropylmethyl)-1-methyl-1H-pyrazol-4-yl)-5-fluoropyrimidin-2-yl)amino)cyclohexyl)amino)-N-(2-(2-(2-(2-((2-(2,6-dioxopiperidin-3-yl)-1-oxoisoindolin-4-yl)amino)ethoxy)ethoxy)ethoxy)ethyl)acetamide], the Dmax at 1 µM in test [8] lay in the range of 50 to 75%; in test [1], 25 to 50%. The inhibition at 1 µM in test [3], in test [4] and in test [5] was greater than 90% throughout. In test [6], the fold induction at 1 µM was no more than 0.1. In test [7], the viability at 1 µM is greater than 90%.

In turn, `CC(C)(C)c1cnc(CSc2cnc(NC(=O)C3CCN(CC(=O)NCCOCCNC(=O)NCc4cc5c(s4)C(=O)N(C4CCC(=O)NC4=O)C5)CC3)s2)o1` (stereo not drawn) [Compound 3, 3-{8-Oxo-3-[(3-{2-[2-(2-{4-[(5-{[5-(tert-butyl)-1,3-oxazol-2-yl]methylthio}-1,3-thiazol-2-ylamino)carbonyl]-1-piperidyl}acetylamino)ethoxy]ethyl}ureido)methyl]-2-thia-7-azabicyclo[3.3.0]octa-1(5),3-dien-7-yl}-2,6-piperidinedione] displayed a Dmax at 1 µM in test [1] of 25 to 50%. For the same compound, the values for the inhibition at 1 µM in test [3], in test [4] and in test [5] were greater than 90%, greater than 90% and 70 to 90%, respectively. Moreover, the fold induction at 1 µM in test [6] lay in the range of 0.1 to 0.5. The viability at 1 µM in test [7] is greater than 90%.
